Measurements published in article PMC12102759 (Protein Science : A Publication of the Protein Society, 2025).
Read-outs that look alike come from different tables or passages of the source.

System: PABPC1 PABC
Assay type: binding, human
Details: DMS-BM library, bait PABPC1 PABC, row aa = residue at this position; for DMS-derived PSSM value, position K9 / DMS-derived PSSM value, position K7 / DMS-derived PSSM value (averaged), position K7: K = wild type; for DMS-derived PSSM value (averaged), position L2: L = wild type; for DMS-derived PSSM value (averaged), position A6: A = wild type; for DMS-derived PSSM value, position R12 / DMS-derived PSSM value, position R14: R = wild type; for DMS-derived PSSM value, position E10 / DMS-derived PSSM value, position E8: E = wild type
[1] = prey ATXN2, peptide KSTLNPNAKEFNPRSF
[2] = prey ATXN2, TLNPNAKEFNPRSF(averaged) over the two overlapping peptides
[3] = prey ATXN2, peptide KSTLNPNAKEFNPRSF, P = wild type
[4] = prey ATXN2, TLNPNAKEFNPRSF(averaged) over the two overlapping peptides, N = wild type
[5] = prey ATXN2, peptide TLNPNAKEFNPRSFSQ
[6] = prey ATXN2, peptide TLNPNAKEFNPRSFSQ, S = wild type
[7] = prey ATXN2, peptide KSTLNPNAKEFNPRSF, N = wild type
[8] = prey ATXN2, peptide TLNPNAKEFNPRSFSQ, F = wild type
[9] = prey ATXN2, peptide TLNPNAKEFNPRSFSQ, N = wild type
[10] = prey ATXN2, TLNPNAKEFNPRSF(averaged) over the two overlapping peptides, P = wild type
[11] = prey ATXN2, TLNPNAKEFNPRSF(averaged) over the two overlapping peptides, F = wild type
[12] = prey ATXN2, peptide TLNPNAKEFNPRSFSQ, P = wild type
[13] = prey ATXN2, peptide KSTLNPNAKEFNPRSF, S = wild type
[14] = prey ATXN2, TLNPNAKEFNPRSF(averaged) over the two overlapping peptides, T = wild type

## KSTLNPNAKEFNPRSF K9W (KSTLNPNAWEFNPRSF)
[1]
  DMS-derived PSSM value, position K9: 0.002107

## TLNPNAKEFNPRSF(averaged) L2D (TDNPNAKEFNPRSF)
[2]
  DMS-derived PSSM value (averaged), position L2: 0

## KSTLNPNAKEFNPRSF P13T (KSTLNPNAKEFNTRSF)
[3]
  DMS-derived PSSM value, position P13: 0.0002514

## TLNPNAKEFNPRSF(averaged) N5Y (TLNPYAKEFNPRSF)
[4]
  DMS-derived PSSM value (averaged), position N5: 0.004226

## KSTLNPNAKEFNPRSF P6I (KSTLNINAKEFNPRSF)
[3]
  DMS-derived PSSM value, position P6: 0.3229

## TLNPNAKEFNPRSFSQ K7D (TLNPNADEFNPRSFSQ)
[5]
  DMS-derived PSSM value, position K7: 0.01281

## TLNPNAKEFNPRSF(averaged) A6G (TLNPNGKEFNPRSF)
[2]
  DMS-derived PSSM value (averaged), position A6: 0

## TLNPNAKEFNPRSFSQ S13L (TLNPNAKEFNPRLFSQ)
[6]
  DMS-derived PSSM value, position S13: 0.06939

## KSTLNPNAKEFNPRSF N12I (KSTLNPNAKEFIPRSF)
[7]
  DMS-derived PSSM value, position N12: 0.02863

## TLNPNAKEFNPRSF(averaged) L2Y (TYNPNAKEFNPRSF)
[2]
  DMS-derived PSSM value (averaged), position L2: 0.0552

## TLNPNAKEFNPRSF(averaged) S13H (TLNPNAKEFNPRHF)
Prey ATXN2, TLNPNAKEFNPRSF(averaged) over the two overlapping peptides, S = wild type
  DMS-derived PSSM value (averaged), position S13: 0.06517

## TLNPNAKEFNPRSFSQ S13Q (TLNPNAKEFNPRQFSQ)
[6]
  DMS-derived PSSM value, position S13: 0.0185

## TLNPNAKEFNPRSF(averaged) N3W (TLWPNAKEFNPRSF)
[4]
  DMS-derived PSSM value (averaged), position N3: 0

## KSTLNPNAKEFNPRSF N7M (KSTLNPMAKEFNPRSF)
[7]
  DMS-derived PSSM value, position N7: 0.02788

## KSTLNPNAKEFNPRSF P13D (KSTLNPNAKEFNDRSF)
[3]
  DMS-derived PSSM value, position P13: 0.0004732

## TLNPNAKEFNPRSF(averaged) L2S (TSNPNAKEFNPRSF)
[2]
  DMS-derived PSSM value (averaged), position L2: 0

## KSTLNPNAKEFNPRSF K9H (KSTLNPNAHEFNPRSF)
[1]
  DMS-derived PSSM value, position K9: 0.04428

## TLNPNAKEFNPRSFSQ R12V (TLNPNAKEFNPVSFSQ)
[5]
  DMS-derived PSSM value, position R12: 0.1384

## KSTLNPNAKEFNPRSF P6G (KSTLNGNAKEFNPRSF)
[3]
  DMS-derived PSSM value, position P6: 0.01358

## TLNPNAKEFNPRSFSQ T1E (ELNPNAKEFNPRSFSQ)
Prey ATXN2, peptide TLNPNAKEFNPRSFSQ, T = wild type
  DMS-derived PSSM value, position T1: 0.003724

## TLNPNAKEFNPRSF(averaged) A6K (TLNPNKKEFNPRSF)
[2]
  DMS-derived PSSM value (averaged), position A6: 0

## TLNPNAKEFNPRSFSQ F14I (TLNPNAKEFNPRSISQ)
[8]
  DMS-derived PSSM value, position F14: 0.0189

## TLNPNAKEFNPRSFSQ N3S (TLSPNAKEFNPRSFSQ)
[9]
  DMS-derived PSSM value, position N3: 0.4554

## TLNPNAKEFNPRSF(averaged) P4Y (TLNYNAKEFNPRSF)
[10]
  DMS-derived PSSM value (averaged), position P4: 0

## KSTLNPNAKEFNPRSF E10P (KSTLNPNAKPFNPRSF)
[1]
  DMS-derived PSSM value, position E10: 0.01939

## TLNPNAKEFNPRSF(averaged) K7E (TLNPNAEEFNPRSF)
[2]
  DMS-derived PSSM value (averaged), position K7: 0.01581

## TLNPNAKEFNPRSF(averaged) F14D (TLNPNAKEFNPRSD)
[11]
  DMS-derived PSSM value (averaged), position F14: 0.01885

## TLNPNAKEFNPRSFSQ P11L (TLNPNAKEFNLRSFSQ)
[12]
  DMS-derived PSSM value, position P11: 0.02416

## KSTLNPNAKEFNPRSF S15Q (KSTLNPNAKEFNPRQF)
[13]
  DMS-derived PSSM value, position S15: 0

## TLNPNAKEFNPRSFSQ P11E (TLNPNAKEFNERSFSQ)
[12]
  DMS-derived PSSM value, position P11: 0.0006031

## KSTLNPNAKEFNPRSF P6Q (KSTLNQNAKEFNPRSF)
[3]
  DMS-derived PSSM value, position P6: 0

## TLNPNAKEFNPRSFSQ P11A (TLNPNAKEFNARSFSQ)
[12]
  DMS-derived PSSM value, position P11: 0.0003099

## TLNPNAKEFNPRSF(averaged) L2Q (TQNPNAKEFNPRSF)
[2]
  DMS-derived PSSM value (averaged), position L2: 0

## TLNPNAKEFNPRSFSQ N5V (TLNPVAKEFNPRSFSQ)
[9]
  DMS-derived PSSM value, position N5: 0.09342

## KSTLNPNAKEFNPRSF N12H (KSTLNPNAKEFHPRSF)
[7]
  DMS-derived PSSM value, position N12: 0.04066

## KSTLNPNAKEFNPRSF P6S (KSTLNSNAKEFNPRSF)
[3]
  DMS-derived PSSM value, position P6: 0.01358

## TLNPNAKEFNPRSFSQ S15I (TLNPNAKEFNPRSFIQ)
[6]
  DMS-derived PSSM value, position S15: 0.0111

## KSTLNPNAKEFNPRSF S2H (KHTLNPNAKEFNPRSF)
[13]
  DMS-derived PSSM value, position S2: 0.0308

## TLNPNAKEFNPRSFSQ R12S (TLNPNAKEFNPSSFSQ)
[5]
  DMS-derived PSSM value, position R12: 0.1947

## KSTLNPNAKEFNPRSF F11V (KSTLNPNAKEVNPRSF)
Prey ATXN2, peptide KSTLNPNAKEFNPRSF, F = wild type
  DMS-derived PSSM value, position F11: 0

## TLNPNAKEFNPRSFSQ E8H (TLNPNAKHFNPRSFSQ)
[5]
  DMS-derived PSSM value, position E8: 0.0374

## TLNPNAKEFNPRSFSQ R12Y (TLNPNAKEFNPYSFSQ)
[5]
  DMS-derived PSSM value, position R12: 0.05186

## TLNPNAKEFNPRSFSQ N10P (TLNPNAKEFPPRSFSQ)
[9]
  DMS-derived PSSM value, position N10: 0.06147

## TLNPNAKEFNPRSF(averaged) N5K (TLNPKAKEFNPRSF)
[4]
  DMS-derived PSSM value (averaged), position N5: 0.009917

## TLNPNAKEFNPRSF(averaged) F14L (TLNPNAKEFNPRSL)
[11]
  DMS-derived PSSM value (averaged), position F14: 0.193

## KSTLNPNAKEFNPRSF R14K (KSTLNPNAKEFNPKSF)
[1]
  DMS-derived PSSM value, position R14: 0.002275

## TLNPNAKEFNPRSFSQ P4L (TLNLNAKEFNPRSFSQ)
[12]
  DMS-derived PSSM value, position P4: 0.05708

## TLNPNAKEFNPRSFSQ E8Y (TLNPNAKYFNPRSFSQ)
[5]
  DMS-derived PSSM value, position E8: 0.04993

## TLNPNAKEFNPRSFSQ S15H (TLNPNAKEFNPRSFHQ)
[6]
  DMS-derived PSSM value, position S15: 0.01215

## TLNPNAKEFNPRSF(averaged) F9K (TLNPNAKEKNPRSF)
[11]
  DMS-derived PSSM value (averaged), position F9: 0.003046

## TLNPNAKEFNPRSFSQ F14G (TLNPNAKEFNPRSGSQ)
[8]
  DMS-derived PSSM value, position F14: 0.005512

## KSTLNPNAKEFNPRSF E10L (KSTLNPNAKLFNPRSF)
[1]
  DMS-derived PSSM value, position E10: 0

## TLNPNAKEFNPRSF(averaged) F14E (TLNPNAKEFNPRSE)
[11]
  DMS-derived PSSM value (averaged), position F14: 0.01777

## KSTLNPNAKEFNPRSF E10Q (KSTLNPNAKQFNPRSF)
[1]
  DMS-derived PSSM value, position E10: 0

## TLNPNAKEFNPRSFSQ E8K (TLNPNAKKFNPRSFSQ)
[5]
  DMS-derived PSSM value, position E8: 0

## TLNPNAKEFNPRSF(averaged) T1V (VLNPNAKEFNPRSF)
[14]
  DMS-derived PSSM value (averaged), position T1: 0.1224

## TLNPNAKEFNPRSF(averaged) N10P (TLNPNAKEFPPRSF)
[4]
  DMS-derived PSSM value (averaged), position N10: 0.03074

## TLNPNAKEFNPRSFSQ R12K (TLNPNAKEFNPKSFSQ)
[5]
  DMS-derived PSSM value, position R12: 0.01776

## KSTLNPNAKEFNPRSF R14L (KSTLNPNAKEFNPLSF)
[1]
  DMS-derived PSSM value, position R14: 0.02501

## TLNPNAKEFNPRSF(averaged) P4M (TLNMNAKEFNPRSF)
[10]
  DMS-derived PSSM value (averaged), position P4: 0.0005819

## TLNPNAKEFNPRSFSQ K7Q (TLNPNAQEFNPRSFSQ)
[5]
  DMS-derived PSSM value, position K7: 0.008943

## KSTLNPNAKEFNPRSF S2W (KWTLNPNAKEFNPRSF)
[13]
  DMS-derived PSSM value, position S2: 0.0005784

## TLNPNAKEFNPRSFSQ F9I (TLNPNAKEINPRSFSQ)
[8]
  DMS-derived PSSM value, position F9: 0

## KSTLNPNAKEFNPRSF R14T (KSTLNPNAKEFNPTSF)
[1]
  DMS-derived PSSM value, position R14: 0.1913

## TLNPNAKEFNPRSFSQ S15A (TLNPNAKEFNPRSFAQ)
[6]
  DMS-derived PSSM value, position S15: 0.02541

## TLNPNAKEFNPRSF(averaged) F9N (TLNPNAKENNPRSF)
[11]
  DMS-derived PSSM value (averaged), position F9: 0.04813

## TLNPNAKEFNPRSFSQ P11M (TLNPNAKEFNMRSFSQ)
[12]
  DMS-derived PSSM value, position P11: 0.01106

## TLNPNAKEFNPRSF(averaged) K7Q (TLNPNAQEFNPRSF)
[2]
  DMS-derived PSSM value (averaged), position K7: 0.01764

## TLNPNAKEFNPRSF(averaged) N3Y (TLYPNAKEFNPRSF)
[4]
  DMS-derived PSSM value (averaged), position N3: 0.00806

## TLNPNAKEFNPRSF(averaged) T1H (HLNPNAKEFNPRSF)
[14]
  DMS-derived PSSM value (averaged), position T1: 0.01509

## TLNPNAKEFNPRSF(averaged) L2I (TINPNAKEFNPRSF)
[2]
  DMS-derived PSSM value (averaged), position L2: 0.0008035
